Experimental findings from patent US11286243B2 (GLOBAL BLOOD THERAPEUTICS, INC., priority 2018, dated 2022) are described below.

For this test, the target named is T1, human ferroportin (Homo sapiens, UniProt Q9NP59).
T1 construct: luciferase reporter (probably NanoLuc: read with the Nano-Glo Luciferase Assay System); expressed in transfected cells; host or cells: CHO cells, stably transfected, doxycycline-inducible expression
T1 sequence (Q9NP59 1-571): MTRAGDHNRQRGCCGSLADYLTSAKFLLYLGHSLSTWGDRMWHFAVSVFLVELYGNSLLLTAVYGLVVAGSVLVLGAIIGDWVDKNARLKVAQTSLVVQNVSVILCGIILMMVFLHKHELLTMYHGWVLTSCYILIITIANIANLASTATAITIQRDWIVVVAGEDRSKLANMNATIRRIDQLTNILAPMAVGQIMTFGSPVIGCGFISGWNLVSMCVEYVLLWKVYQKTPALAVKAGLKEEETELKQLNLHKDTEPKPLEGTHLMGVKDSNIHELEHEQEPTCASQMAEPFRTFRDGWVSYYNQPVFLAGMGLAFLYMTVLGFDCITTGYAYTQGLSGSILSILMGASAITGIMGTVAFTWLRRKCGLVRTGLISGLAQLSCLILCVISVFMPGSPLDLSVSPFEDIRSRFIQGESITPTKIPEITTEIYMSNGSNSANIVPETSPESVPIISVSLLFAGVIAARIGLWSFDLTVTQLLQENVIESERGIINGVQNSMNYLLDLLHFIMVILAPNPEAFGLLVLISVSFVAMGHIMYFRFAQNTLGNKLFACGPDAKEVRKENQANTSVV
Description: In-vitro ferroportin internalization assay (luciferase reporter). It is filed as cell-based. The settings on record: average pEC50; stably-transfected CHO cell line expressing human ferroportin tagged to a luciferase reporter; 6 h incubation with test compounds. Summed up: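 CHO cells stably expressing human ferroportin fused to a luciferase reporter were plated 24 h with ferric ammonium citrate, then induced with doxycycline for 24 h. Compounds in DMSO were incubated with cells for 6 h before luciferase readout by Nano-Glo. Results are reported as average pEC50.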
Background: Reporter assays use an easily measured gene product as a stand-in for the process of interest.

On to `Fc1ccc2[nH]c(CCNCCc3nc4c(NCc5ncccc5F)ncnc4s3)nc2c1` [Compound 3, 2-(2-{[2-(5-fluoro-1H-1,3-benzodiazol-2-yl)ethyl]amino}ethyl)-N-[(3-fluoropyridin-2-yl)methyl]-[1,3]thiazolo[5,4-d]pyrimidin-7-amine], for which the pEC50 (in general, −log10 of the EC50, conventionally taken in molar units) is 7.1.

In turn, `Fc1cccnc1CNc1nccc2sc([C@H](F)CNCCc3nc4ccccc4[nH]3)nc12` [Compound 82, 2-[(1R)-2-{[2-(1H-1,3-benzodiazol-2-yl)ethyl]amino}-1-fluoroethyl]-N-[(3-fluoropyridin-2-yl)methyl]-[1,3]thiazolo[4,5-c]pyridin-4-amine] showed a pEC50 of 6.4.

`C#CCCC1(CCC(=O)Nc2ccc3[nH]c(CCNCCc4nc5c(NCc6ncccc6F)ncnc5s4)nc3c2)N=N1` [Compound 22, 3-[3-(but-3-yn-1-yl)-3H-diazirin-3-yl]-N-[2-(2-{[2-(7-{[(3-fluoropyridin-2-yl)methyl]amino}-[1,3]thiazolo[5,4-d]pyrimidin-2-yl)ethyl]amino}ethyl)-1H-1,3-benzodiazol-5-yl]propanamide] returned a pEC50 of 6.5.

The compound `Oc1cc2oc(CCNCCc3nc4ccccc4[nH]3)nc2c(NCc2ncccc2F)n1` [Compound 59, 2-(2-{[2-(1H-1,3-benzodiazol-2-yl)ethyl]amino}ethyl)-4-{[(3-fluoropyridin-2-yl)methyl]amino}-[1,3]oxazolo[4,5-c]pyridin-6-ol] registered a pEC50 of 6.2.

Regarding `Fc1cccnc1CNc1ncnc2sc(CCNCCc3ncc(C4CC4)[nH]3)nc12` [Compound 51, 2-(2-{[2-(5-cyclopropyl-1H-imidazol-2-yl)ethyl]amino}ethyl)-N-[(3-fluoropyridin-2-yl)methyl]-[1,3]thiazolo[5,4-d]pyrimidin-7-amine], the pEC50 worked out at 8.2.

In turn, `Cc1cccnc1CNc1ncnc2sc(CCNCCc3nc4ccccc4[nH]3)nc12` [Compound 12, 2-(2-{[2-(1H-1,3-benzodiazol-2-yl)ethyl]amino}ethyl)-N-[(3-methylpyridin-2-yl)methyl]-[1,3]thiazolo[5,4-d]pyrimidin-7-amine] registered a pEC50 of 7.3.

As for `O=c1c2ccccc2[nH]n1CCNCCc1nc2c(NCc3ncccc3F)ncnc2s1` [Compound 34, 2-(2-{[2-(7-{[(3-fluoropyridin-2-yl)methyl]amino}-[1,3]thiazolo[5,4-d]pyrimidin-2-yl)ethyl]amino}ethyl)-2,3-dihydro-1H-indazol-3-one], the pEC50 was 5.1.

`CN(CCc1nc2ccccc2[nH]1)CCc1nc2c(NCc3ncccc3F)ncnc2s1` [Compound 10, 2-(2-{[2-(1H-1,3-benzodiazol-2-yl)ethyl](methyl)amino}ethyl)-N-[(3-fluoropyridin-2-yl)methyl]-[1,3]thiazolo[5,4-d]pyrimidin-7-amine] displayed a pEC50 of 5.7.
